# Experimental data taken from ChEMBL document CHEMBL1137961, “Benzimidazolone p38 inhibitors” (Bioorg Med Chem Lett, 2004).
# Target: Mitogen-activated protein kinase 14 (Homo sapiens, UniProt Q16539)
# Test: Inhibitory activity against mitogen activated protein (MAP) kinase p38 alpha.
# Mitogen-activated protein kinase 14, sequence (Q16539 whole entry): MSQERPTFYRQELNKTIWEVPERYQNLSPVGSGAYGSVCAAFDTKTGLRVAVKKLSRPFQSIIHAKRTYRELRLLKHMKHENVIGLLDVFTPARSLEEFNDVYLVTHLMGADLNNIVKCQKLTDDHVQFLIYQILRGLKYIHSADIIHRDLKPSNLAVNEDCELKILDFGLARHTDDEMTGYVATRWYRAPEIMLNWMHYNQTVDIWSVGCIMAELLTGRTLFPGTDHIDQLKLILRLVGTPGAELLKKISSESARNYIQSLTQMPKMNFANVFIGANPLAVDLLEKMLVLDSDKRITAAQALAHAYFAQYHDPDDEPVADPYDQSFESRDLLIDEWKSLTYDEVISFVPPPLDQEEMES
row,Compound,IC50
1,CCn1c(=O)n(CC)c2cc(-c3c(-c4ccc(F)cc4)ncn3C3CCNCC3)ccc21,90 nM
2,CCn1c(=O)n(CC)c2cc(-c3c[nH]nc3-c3cccc(C)c3)ccc21,9 nM
3,CCc1ccc(-c2[nH]c(-c3cccs3)nc2-c2ccc3c(c2)n(C)c(=O)n3C)cc1,8000 nM
4,Cn1c(=O)n(C)c2cc(-c3[nH]cnc3-c3ccccc3)ccc21,290 nM
5,Cn1c(=O)n(C)c2cc(-c3[nH]c(-c4cccs4)nc3-c3ccc(F)cc3)ccc21,270 nM
6,Cn1c(=O)n(C)c2cc(-c3[nH]cnc3-c3ccc(F)cc3)ccc21,140 nM
7,Cn1c(=O)n(C)c2cc(-c3[nH]c(-c4cccs4)nc3-c3cccc(C(F)(F)F)c3)ccc21,1500 nM
8,CCn1c(=O)n(CC)c2cc(-c3n[nH]cc3-c3ccccc3)ccc21,680 nM
9,CCn1c(=O)n(CC)c2cc(-c3[nH]c(-c4cccnc4)nc3-c3cccc(C)c3)ccc21,70 nM
10,CCn1c(=O)n(CC)c2cc(-n3nnnc3-c3ccc(F)c(C)c3)ccc21,> 1000 nM
11,Cn1c(=O)n(C)c2cc(-c3c[nH]nc3-c3ccccc3)ccc21,200 nM
12,CCn1c(=O)n(CC)c2cc(-c3nnnn3-c3ccc(F)c(C)c3)ccc21,> 1000 nM
13,CCn1c(=O)n(CC)c2cc(-c3c(-c4cccc(C)c4)nc(C4CCNCC4)n3C)ccc21,1250 nM
14,CCn1c(=O)n(CC)c2cc(-c3[nH]cnc3-c3ccc(F)cc3)ccc21,100 nM
15,Cn1c(=O)n(C)c2cc(-c3[nH]c(-c4cccs4)nc3-c3ccccc3Cl)ccc21,540 nM
16,Cn1c(=O)n(C)c2cc(-c3[nH]c(-c4cccs4)nc3-c3ccc(Cl)cc3)ccc21,680 nM
17,Cn1c(=O)n(C)c2cc(-c3[nH]c(-c4cccs4)nc3-c3ccccc3F)ccc21,370 nM
18,Cn1c(=O)n(C)c2cc(-c3[nH]c(-c4cccs4)nc3-c3ccccc3)ccc21,260 nM
19,CCn1c(=O)n(CC)c2cc(-c3cc(-c4cccnc4)[nH]c3-c3cccc(C)c3)ccc21,> 1000 nM
20,Cn1c(=O)n(C)c2cc(-c3[nH]c(-c4cccs4)nc3-c3cccc(Cl)c3)ccc21,380 nM
21,Cc1cccc(-n2cncc2-c2ccc3c(c2)n(C)c(=O)n3C)c1,14400 nM
22,CCn1c(=O)n(CC)c2cc(-c3c[nH]nc3-c3cccc(C(F)(F)F)c3)ccc21,60 nM
23,Cn1c(=O)n(C)c2cc(-c3[nH]c(-c4ccc([S+](C)[O-])cc4)nc3-c3ccc(F)cc3)ccc21 (stereo not given),4000 nM
24,CCn1c(=O)n(CC)c2cc(-c3n[nH]cc3-c3cccc(C)c3)ccc21,730 nM
25,CCn1c(=O)n(CC)c2cc(-c3[nH]cnc3-c3ccccc3)ccc21,140 nM
26,CCn1c(=O)n(CC)c2cc(-c3c[nH]cn3)ccc21,> 1000 nM
27,Cc1cccc(-c2nc(C3CCNCC3)[nH]c2-c2ccc3c(c2)n(C)c(=O)n3C)c1,70 nM
28,CCn1c(=O)n(CC)c2cc(-c3cccnc3-c3cccc(C)c3)ccc21,> 1000 nM

# Further lines, results first:
row,IC50,Compound
1,140 nM,Cc1cccc(-c2nc(-c3cccs3)[nH]c2-c2ccc3c(c2)n(C)c(=O)n3C)c1
2,50 nM,CCn1c(=O)n(CC)c2cc(-c3[nH]cnc3-c3cccc(C)c3)ccc21
3,800 nM,CCn1c(=O)n(CC)c2cc(-c3ocnc3-c3cccc(C)c3)ccc21
4,6200 nM,Cc1ccccc1-c1nc(-c2cccs2)[nH]c1-c1ccc2c(c1)n(C)c(=O)n2C
5,500 nM,CCc1cccc(-c2[nH]c(-c3cccs3)nc2-c2ccc3c(c2)n(C)c(=O)n3C)c1
6,390 nM,Cn1c(=O)n(C)c2cc(-c3[nH]c(-c4cccs4)nc3-c3cccc(F)c3)ccc21
7,15800 nM,Cn1c(=O)n(C)c2cc(-c3[nH]c(-c4cccs4)nc3-c3cccc(OC(F)(F)F)c3)ccc21
8,260 nM,Cc1cccc(-c2[nH]c3nc(N)ccc3c2-c2ccc3c(c2)n(C)c(=O)n3C)c1
9,2500 nM,Cn1c(=O)n(C)c2cc(-c3n[nH]cc3-c3ccccc3)ccc21
10,100 nM,Cc1cccc(-c2nc[nH]c2-c2ccc3c(c2)n(C)c(=O)n3C)c1
11,1800 nM,Cc1ccc(-c2nc(-c3cccs3)[nH]c2-c2ccc3c(c2)n(C)c(=O)n3C)cc1
12,690 nM,CCn1c(=O)n(CC)c2cc(-c3ccnn3-c3cccc(C)c3)ccc21
13,12500 nM,Cc1cccc(-c2nncn2-c2ccc3c(c2)n(C)c(=O)n3C)c1
14,200 nM,Cc1cccc(-c2nc(-c3cccnc3)[nH]c2-c2ccc3c(c2)n(C)c(=O)n3C)c1
15,30 nM,CCn1c(=O)n(CC)c2cc(-c3c[nH]nc3-c3ccc(F)c(C)c3)ccc21
16,> 32000 nM,CC(C)c1cccc(-c2[nH]c(-c3cccs3)nc2-c2ccc3c(c2)n(C)c(=O)n3C)c1
17,200 nM,CCn1c(=O)n(CC)c2cc(-c3c[nH]nc3-c3ccccc3)ccc21
